Measured values published in the NIST ThermoML archive (doi:10.1021/acs.jced.8b01044).
± gives the expanded uncertainty stated by the source.

How the values were obtained:
[1] = Crystal; DSC
[2] = Molar enthalpy of transition or fusion; settings: Crystal; DSC

Row | Structure (SMILES) | Triple point temperature [1] | Molar enthalpy of transition or fusion [2]
1 | CCCCCCCCCCCC(=O)O [dodecanoic acid] | 317.71 ± 0.93 K | 8.54 ± 0.598 kcal/mol
2 | CCCCCCCCCCCCCCCC(=O)O [hexadecanoic acid] | 336.13 ± 0.93 K | 12.1 ± 0.765 kcal/mol
3 | CCCCCCCCCCCCCCCCCC(=O)O [octadecanoic acid] | 344.08 ± 0.93 K | 14.5 ± 0.86 kcal/mol
